ChEMBL document CHEMBL3272224, “Synthesis and hypotensive activity of N-alkyl-N"-cyano-N'-pyridylguanidines” (J Med Chem, 1978)

What was measured:
[1] = Toxicity in po dosed mouse assessed as mortality after 7 days; settings: in vivo
Rattus norvegicus = experiment: Hypotensive activity in po dosed spontaneously hypertensive Wistar-Okamoto rat assessed as dose required to cause 30 mmHg fall of blood pressure administered for 5 days; assay type: functional; settings: 120 h, read-out: MED

Row | SMILES | LD50 at 168 h [1] [mg/kg] | minimal effective dose (Rattus norvegicus) [mg/kg]
1 | CCC(CC)N/C(=N\O)Nc1cccnc1 | > 1000 | 50
2 | C=C(C)C/N=C(\NC#N)Nc1cccnc1 | 1000 | 20
3 | CC(C)C(/N=C(\NC#N)Nc1cccnc1)C(C)C | > 1000 | 5
4 | N#CN/C(=N\c1ccccc1)Nc1cccnc1 | > 1000 | 5
5 | CC(C)CCCC(C)N/C(=N\C#N)Nc1ccncc1 (stereo not given) | > 1000 | 50
6 | CC(C)C(/N=C(\NC#N)Nc1ccncc1)C(C)C | 250 | 8
7 | N#CN/C(=N\C1CCCCC1)Nc1ccccn1 | 1000 | > 35
8 | CCC(C)(C)N/C(=N\c1ncccn1)Nc1cccnc1.Cl | 1000 | > 35
9 | CC(C)(C)/N=C(\NC#N)Nc1cccnc1Cl | > 1000 | 5
10 | CCC(C)(C)N/C(=N\C=O)Nc1cccnc1 | 600 | > 20
11 | Cc1noc(C)c1N/C(=N/C#N)NC(C)(C)C | > 1000 | 10
12 | N#CN/C(=N\C(C1CC1)C1CC1)Nc1ccncc1 | 600 | 10
13 | CCOC(=O)/N=C(/Nc1cccnc1)NC(C)(C)CC | 600 | 20
14 | CC(C)CC(C)/N=C(\NC#N)Nc1ccncc1 (stereo not given) | 1000 | 35
15 | CC1(/N=C(\NC#N)Nc2cccnc2)CCC1 | > 1000 | 50
16 | CCC(CC)/N=C(\NC#N)Nc1ccncc1 | 200 | 2.5
17 | CO/N=C(/Nc1cccnc1)NC(C)(C)C | > 1000 | 50
18 | CCC(CC)(CC)/N=C(\NC#N)Nc1cccnc1 | > 1000 | 1
19 | CC(C)C(C)(C)/N=C(\NC#N)Nc1ccncc1 | 1000 | 20
20 | CCC(C)(CC)/N=C(\NC#N)Nc1ccncc1 | 300 | 0.5
21 | Cc1cc(C)nc(N/C(=N/C(C)(C)C)NC#N)c1 | > 1000 | > 50
22 | CCC(C)(C)/N=C(\NC#N)Nc1ccncc1 | 600 | 2.5
23 | CCC(C)(C)N/C(=N\C(N)=O)Nc1cccnc1 | > 1000 | > 50
24 | CCC(C)(CC)/N=C(\NC#N)Nc1cccnc1 | > 1000 | 0.5

Row | SMILES | LD50 at 168 h [1] [mg/kg] | minimal effective dose (Rattus norvegicus) [mg/kg]
25 | CC(C)(C)/N=C(\NC#N)Nc1ccccn1 | 600 | > 20
26 | CC(C)CC(C)(C)/N=C(\NC#N)Nc1cccnc1 | > 1000 | 2.5
27 | CCC(C)(C)N/C(=N\O)Nc1cccnc1 | 600 | > 20
28 | CC(C)(C)N/C(=N\O)Nc1cccnc1 | 1000 | > 35
29 | CC(C)(C)C/N=C(/NC#N)Nc1cccnc1 | > 1000 | 2.5
30 | CC(C)(C)CC(C)(C)/N=C(\NC#N)Nc1ccncc1 | > 1000 | 50
31 | CCCCCCC/N=C(\NC#N)Nc1cccnc1 | > 1000 | > 50
32 | CCCC(C)(C)/N=C(\NC#N)Nc1cccnc1 | > 1000 | 1
33 | N#CN/C(=N\CCc1ccccc1)Nc1cccnc1 | > 1000 | 50
34 | CCC(C)(C)N/C(N)=N/C#N [GUANCYDINE] | 800 | 15
35 | Cc1noc(C)c1N/C(=N/C#N)NC(C)C(C)(C)C (stereo not given) | > 1000 | 20
36 | CCC(C)(C)/N=C(\Nc1cccnc1)Nc1nccs1 | > 1000 | 20
37 | CC(NC(=NC#N)Nc1ccccc1)C(C)(C)C (stereo not given) | > 1000 | > 50
38 | CCC(C)(C)N/C(=N\C#N)Nc1ccc[n+]([O-])c1 | > 1000 | 20
39 | CCC(C)C(C)/N=C(\NC#N)Nc1ccncc1 (stereo not given) | 250 | 8
40 | N#CN/C(=N\C1CCCCC1)Nc1ccncc1 | 600 | 20
41 | N#CN/C(=N\C1CCCCC1)Nc1cccnc1 | > 1000 | 20
42 | CCCCC/N=C(\NC#N)Nc1cccnc1 | > 1000 | 20
43 | CC(C)(C)N/C(=N\C#N)Nc1c(Cl)cccc1Cl | > 1000 | > 50
44 | CCC(C)(C)N/C(=N\S(=O)(=O)c1ccc(C)cc1)Nc1cccnc1 | > 1000 | > 50
45 | CCC(C)(C)N/C(=N\C#N)Nc1ccc(N(C)C)cc1 | > 1000 | > 50
46 | CCC(C)(C)N/C(=N\C#N)Nc1ccc[n+](C)c1.[I-] | > 1000 | 20
47 | CC(C)(C)C(C)(C)/N=C(\NC#N)Nc1ccncc1 | > 1000 | 20
48 | N#C/N=C(/Nc1ccncc1)NC12CC3CC(CC(C3)C1)C2 | > 1000 | 5

Row | SMILES | LD50 at 168 h [1] [mg/kg] | minimal effective dose (Rattus norvegicus) [mg/kg]
49 | CCOCC/N=C(\NC#N)Nc1cccnc1 | 600 | > 20
50 | CC(C)C(=O)N(/C(=N\C#N)Nc1cccnc1)C(C)(C)C | > 1000 | 10
51 | CCn1nc(C)cc1N/C(=N/C#N)NC(C)(C)C | > 1000 | 10
52 | CC(C)CC/N=C(\NC#N)Nc1cccnc1 | > 1000 | 20
53 | CCC(C)(C)N/C(=N\C#N)NCc1ccncc1.O | > 1000 | 20
54 | N#CN/C(=N\Cc1ccccc1)Nc1ccncc1 | 600 | 5
55 | N#CN/C(=N\Cc1ccccc1)Nc1cccnc1 | > 1000 | 20
56 | CC(/N=C(/NC#N)Nc1cccnc1)C(C)(C)C (stereo not given) | 1000 | 1
57 | CCCCC(CC)C/N=C(\NC#N)Nc1cccnc1 (stereo not given) | > 1000 | > 50
58 | CCC(C)(C)N/C(=N\c1cnccn1)Nc1cccnc1 | 800 | 25
59 | Cn1nc(-c2ccc(Cl)cc2)cc1N/C(=N/C#N)NC(C)(C)C | > 1000 | > 50
60 | CC(C)(C)C(C)(C)/N=C(\NC#N)Nc1cccnc1 | > 1000 | 50
61 | CC(C)C(C)(C)/N=C(\NC#N)Nc1cccnc1 | > 1000 | 1
62 | CC(C)(C)CC(C)(C)/N=C(\NC#N)Nc1cccnc1 | > 1000 | 50
63 | COc1ccc(/N=C(\NC#N)NC(C)(C)C)c(OC)n1 | > 1000 | > 50
64 | CCC(C)(C)N/C(=N\C#N)Nc1ccccc1 | > 1000 | 50
65 | COc1ccc(N/C(=N/C(C)(C)C)NC#N)cn1 | 400 | 15
66 | N#CN/C(=N\C1CCCCCCC1)Nc1ccncc1 | 600 | > 20
67 | CC(C)CC(C)(C)/N=C(\NC#N)Nc1ccncc1 | > 1000 | 20
68 | CCC(C)(C)N/C(=N\C#N)NCCCN(C)C | > 1000 | 25
69 | CC(C)/N=C(\NC#N)Nc1cccnc1 | > 1000 | 2.5
70 | CC(C)(C)N/C(=N\C#N)NCCc1ccccn1 | 800 | 25
71 | CC(C)(C)/N=C(\NC#N)Nc1cncc(Br)c1 | 600 | 0.5
72 | Cc1nn(C)c(N/C(=N/C#N)NC(C)(C)C)c1Cl | > 1000 | 20

Row | SMILES | LD50 at 168 h [1] [mg/kg] | minimal effective dose (Rattus norvegicus) [mg/kg]
73 | N#CN/C(=N\Cc1ccco1)Nc1cccnc1 | > 1000 | 20
74 | CN(C)c1ccc(N/C(=N/C#N)NC(C)(C)C)cc1 | > 1000 | > 50
75 | CCC/N=C(\NC#N)Nc1cccnc1 | > 1000 | 20
76 | CC(C)(C)N/C(=N\C#N)NCc1ccccn1 | 600 | > 20
77 | CC(C)(C)N/C(=N\C#N)Nc1ccc(O)cc1 | > 1000 | > 50
78 | CCC(/N=C(\NC#N)Nc1ccncc1)C(C)C (stereo not given) | 600 | 5
79 | CCN(CC)CC/N=C(\NC#N)Nc1cccnc1 | 250 | > 8
80 | CCC(CC)/N=C(\NC#N)Nc1cccnc1 | 600 | 20
81 | CC(C)(C)N/C(=N\C#N)NCc1cccnc1 | > 1000 | 2.5
82 | CCOc1ccccc1N/C(=N/C#N)NC(C)(C)CC | > 1000 | 20
83 | CC(C)(C)/N=C(\NC#N)Nc1ccc(Cl)cn1 | 800 | 25
84 | N#CN/C(=N\C1CC1)Nc1cccnc1 | > 1000 | 20
85 | CCCC/N=C(\NC#N)Nc1cccnc1 | > 1000 | 20
86 | CC(=O)Nc1ccc(N/C(=N/C#N)NC(C)(C)C)cc1 | > 1000 | > 50
87 | CC(N/C(=N\C#N)NCc1ccncc1)C(C)(C)C (stereo not given) | > 1000 | 20
88 | CCC(CC)(CC)/N=C(\NC#N)Nc1ccncc1 | > 1000 | 2.5
89 | CCC(C)/N=C(\NC#N)Nc1cccnc1 (stereo not given) | > 1000 | 20
90 | Cc1cccc(C)c1/N=C(\NC#N)Nc1cccnc1 | > 1000 | 50
91 | CCC(C)(C)N/C(=N\C#N)Nc1cc(-c2ccc(Cl)cc2)nn1C | > 1000 | 50
92 | CC(C)(C)/N=C(\NC#N)Nc1ccncc1 | > 1000 | 2.5
93 | CC(C)C/N=C(\NC#N)Nc1cccnc1 | > 1000 | 20
94 | C/N=C(\NC#N)Nc1cccnc1 | > 1000 | > 50
95 | Cc1cccc(C)c1N/C(=N/C#N)NC(C)(C)C | > 1000 | > 50
